According to patent US7863278B2, “Isethionate salt of a selective CDK4 inhibitor” (Warner-Lambert CompanyLLC, priority 2003, dated 2011):
Read-outs that look alike come from different tables or passages of the source. Blank lines part the entries; values can stand above or below the compound they belong to.

Legend:
water solubility = format: physicochemical; conditions: for solubility at 14 h: thermodynamic from solid
Description: The other isethionate salt forms were not evaluated for metastable solubility. […] See Table 5 for a list of HPLC conditions.

pKa of conjugate acid = format: physicochemical
Description: The free base (Formula 1) is a dibasic compound, which may form both mono- and di-acid addition salts. Its conjugate acid has pKas of 7.3 and 4.1, so comparatively strong acids are necessary for generating the di-salt. Though it may be possible to form a di-isethionate salt of the compound of Formula 1, the mono-isethionate salt appears to be more useful since it requires less counter ion.

[1] = bioavailability in animal studies; format: in vivo
Description: . However, moisture uptake studies reveal that, even at low relative humidity (10% RH), the di-HCl salt absorbs water in an amount greater than about 2% of its mass, making it unsuitable for use in a solid drug product. […]. However, the process for preparing the mono-HCl salt yields partially crystalline drug substance, indicating potential problems with process scale-up. Other salt forms of the compound of Formula 1 are thus needed.

neointima formation = conditions: rats; cited from earlier work

Solubility mgA/mL (water solubility; free base final pH 7.9, 14 h equilibration): 0.009 mgA/mL
solubility at 14 h (water solubility; pH 7.9, water, read-out: free base solubility): 9.2 µg/mL
solubility at 14 h (water solubility; read-out: water solubility): 9 µg/mL
pKa (pKa of conjugate acid; read-out: pKa of conjugate acid (first)): 7.3
pKa (pKa of conjugate acid; read-out: pKa of conjugate acid (second)): 4.1
bioavailability in animal studies [1]: low bioavailability
Structure (SMILES): CC(=O)c1c(C)c2cnc(Nc3ccc(N4CCNCC4)cn3)nc2n(C2CCCC2)c1=O [Formula 1, 6-acetyl-8-cyclopentyl-5-methyl-2-(5-piperazin-1-yl-pyridin-2-ylamino)-8H-pyrido[2,3-d]pyrimidin-7-one]

water solubility (in words) (water solubility): adequate water solubility
Structure (SMILES): CC(=O)c1c(C)c2cnc(Nc3ccc(N4CCNCC4)cn3)nc2n(C2CCCC2)c1=O.Cl.Cl [di-HCl salt]

Structure (SMILES): COc1ccc(CNc2nc(N(CCO)CCO)nc3c2ncn3C(C)C)cc1 [CVT-313]
inhibition of neointima formation (neointima formation): greater than 80%
